Results: ChEMBL document CHEMBL3580578, “Optimization of 5-(2,6-dichlorophenyl)-3-hydroxy-2-mercaptocyclohex-2-enones as potent inhibitors of human lactate dehydrogenase” (Bioorg Med Chem Lett, 2014)
In brackets after ≈: the same amount, converted by molar mass.

Experiments:
[1] = target: T1, Malate dehydrogenase, cytoplasmic (Homo sapiens, UniProt P40925); experiment: Inhibition of malate dehydrogenase 1 (unknown origin)
T1 sequence (P40925 whole entry): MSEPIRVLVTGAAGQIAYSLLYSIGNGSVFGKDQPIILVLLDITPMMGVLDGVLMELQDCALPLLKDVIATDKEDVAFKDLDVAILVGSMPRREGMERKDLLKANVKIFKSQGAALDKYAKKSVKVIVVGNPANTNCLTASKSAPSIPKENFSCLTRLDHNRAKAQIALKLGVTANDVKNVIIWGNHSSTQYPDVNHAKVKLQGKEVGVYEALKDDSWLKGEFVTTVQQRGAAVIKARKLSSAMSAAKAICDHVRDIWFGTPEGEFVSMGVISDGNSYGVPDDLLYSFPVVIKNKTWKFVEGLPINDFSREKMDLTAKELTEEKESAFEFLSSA

[2] = target: L-lactate dehydrogenase A chain (Homo sapiens, UniProt P00338); experiment: Inhibition of human LDH-A by biochemical assay
[3] = target: T2, Malate dehydrogenase, mitochondrial (Homo sapiens, UniProt P40926); experiment: Inhibition of malate dehydrogenase 2 (unknown origin)
T2 sequence (P40926 whole entry): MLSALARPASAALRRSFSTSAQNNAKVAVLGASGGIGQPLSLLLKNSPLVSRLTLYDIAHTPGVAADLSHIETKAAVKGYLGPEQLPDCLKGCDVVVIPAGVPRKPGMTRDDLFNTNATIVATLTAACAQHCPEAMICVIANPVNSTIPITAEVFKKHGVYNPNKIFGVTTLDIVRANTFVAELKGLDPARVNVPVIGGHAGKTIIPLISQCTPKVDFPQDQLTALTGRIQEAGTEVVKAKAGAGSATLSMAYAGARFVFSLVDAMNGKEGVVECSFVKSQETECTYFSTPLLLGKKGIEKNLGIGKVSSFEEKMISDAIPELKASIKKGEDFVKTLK

[4] = target: L-lactate dehydrogenase B chain (Homo sapiens, UniProt P07195)
Description: Inhibition of LDH-B (unknown origin)

[5] = Kinetic solubility of the compound in PBS buffer at pH 7.4
[6] = Apparent permeability from apical to basolateral side in MDCK cells; assay type: ADME, cell-based, Canis lupus familiaris; details: dog
[7] = Stability in mouse plasma assessed as parent compound remaining at 37 degC after 1 hr; assay type: ADME, cell-free; details: read-out: Stability
[8] = Plasma protein binding in human; assay type: ADME, cell-free; details: read-out: PPB

Chain of L-lactate dehydrogenase B chain (P07195 whole entry): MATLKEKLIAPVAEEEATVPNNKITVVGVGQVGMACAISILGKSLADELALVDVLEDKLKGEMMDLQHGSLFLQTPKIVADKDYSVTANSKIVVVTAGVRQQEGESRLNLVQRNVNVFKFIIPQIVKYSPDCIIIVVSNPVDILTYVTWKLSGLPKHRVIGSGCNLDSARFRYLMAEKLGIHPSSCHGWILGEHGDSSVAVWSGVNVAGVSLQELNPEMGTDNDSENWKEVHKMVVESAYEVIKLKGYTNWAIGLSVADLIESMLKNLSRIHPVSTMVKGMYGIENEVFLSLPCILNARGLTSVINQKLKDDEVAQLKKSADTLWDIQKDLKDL

IC50 [1] [µM]	IC50 [2] [nM]	IC50 [3] [µM]	IC50 [4] [nM]	solubility kinetic [5] [µM]	Papp A→B [6] [×10⁻⁶ cm/s]	remaining at 1 h [7] [%]	fraction unbound [8]	SMILES
≥ 10	108	≥ 10						O=C1CC(c2c(Cl)ccc(-c3cccnc3)c2Cl)CC(O)=C1Sc1ccccc1Cl (configuration not stated)
≥ 10	120	≥ 10						O=C1CC(c2c(Cl)cccc2Cl)CC(O)=C1Sc1cc(O)ccc1Cl (configuration not stated)
≥ 10	170	≥ 10						CNc1ccc(Cl)c(SC2=C(O)CC(c3c(Cl)cccc3Cl)CC2=O)c1 (configuration not stated)
≥ 10	120	≥ 10						CC(C)OC(=O)Cc1ccc(Cl)c(SC2=C(O)CC(c3c(Cl)cccc3Cl)CC2=O)c1 (configuration not stated)
≥ 10	35	≥ 10						COc1ccc(Cl)c(SC2=C(O)CC(c3c(Cl)ccc(-c4ccncc4)c3Cl)CC2=O)c1 (configuration not stated)
≥ 10	60	≥ 10						O=C1CC(c2c(Cl)ccc(-c3ccccc3Cl)c2Cl)CC(O)=C1Sc1ccccc1Cl (configuration not stated)
≥ 10	100	≥ 10						CC(=O)N1CCN(c2ccc(Cl)c(C3CC(=O)C(Sc4ccccc4Cl)=C(O)C3)c2Cl)CC1 (configuration not stated)
≥ 10	2600	≥ 10						O=C1CC(c2c(Cl)cc(N3CCOCC3)cc2Cl)CC(O)=C1Sc1ccccc1Cl (configuration not stated)
≥ 10	1800	≥ 10						CNC(=O)Cc1ccc(Cl)c(SC2=C(O)CC(c3c(Cl)cccc3Cl)CC2=O)c1 (configuration not stated)
≥ 10	370	≥ 10						COc1ccc(Cl)c(SC2=C(O)CC(c3c(Cl)cccc3Cl)CC2=O)c1 (configuration not stated)
≥ 10	460	≥ 10	2400					COc1ccc(C#N)c(SC2=C(O)CC(c3c(Cl)ccc(OC(C)C)c3Cl)CC2=O)c1 (configuration not stated)
≥ 10	170	≥ 10						O=C1CC(c2c(Cl)ccc(N3CCNCC3)c2Cl)CC(O)=C1Sc1ccccc1Cl (configuration not stated)
≥ 10	300	≥ 10						O=C(Cc1ccc(Cl)c(SC2=C(O)CC(c3c(Cl)cccc3Cl)CC2=O)c1)NCCO (configuration not stated)
≥ 10	30	≥ 10						CC(C)Oc1ccc(Cl)c(C2CC(=O)C(Sc3cc(O)ccc3Cl)=C(O)C2)c1Cl (configuration not stated)
≥ 10	90	≥ 10						CC(C)Oc1ccc(Cl)c(C2CC(=O)C(Sc3ccccc3Cl)=C(O)C2)c1Cl (configuration not stated)
≥ 10	240	≥ 10						O=C1CC(c2c(Cl)ccc(N3CCOCC3)c2Cl)CC(O)=C1Sc1ccccc1Cl (configuration not stated)
≥ 10	370	≥ 10						O=C1CC(c2c(Cl)ccc(N3CCN(C4COC4)CC3)c2Cl)CC(O)=C1Sc1ccccc1Cl (configuration not stated)

IC50 [1] [µM]	IC50 [2] [nM]	IC50 [3] [µM]	IC50 [4] [nM]	solubility kinetic [5] [µM]	Papp A→B [6] [×10⁻⁶ cm/s]	remaining at 1 h [7] [%]	fraction unbound [8]	SMILES
≥ 10	10000	≥ 10						CN(C)C(=O)Cc1ccc(Cl)c(SC2=C(O)CC(c3c(Cl)cccc3Cl)CC2=O)c1 (configuration not stated)
≥ 10	6	≥ 10		61 (≈ 34.3 µg/mL)	10.6	72		C[C@@H](OC(=O)Cc1ccc(Cl)c(SC2=C(O)CC(c3c(Cl)cccc3Cl)CC2=O)c1)c1ccccc1 (some centres not stated)
≥ 10	1100	≥ 10						O=C1CC(c2c(Cl)ccc(-c3cncnc3)c2Cl)CC(O)=C1Sc1ccccc1Cl (configuration not stated)
≥ 10	30	≥ 10		49 (≈ 25.9 µg/mL)	14		< 0.001	COc1ccc(Cl)c(SC2=C(O)CC(c3c(Cl)ccc(NC4CCOCC4)c3Cl)CC2=O)c1 (configuration not stated)
≥ 10	100	≥ 10						O=C1CC(c2c(Cl)ccc(-c3ccccc3)c2Cl)CC(O)=C1Sc1ccccc1Cl (configuration not stated)
≥ 10		≥ 10						O=C1CC(c2c(Cl)cccc2Cl)CC(O)=C1Sc1ccccc1Cl (configuration not stated)
≥ 10	640	≥ 10						Nc1ccc(Cl)c(SC2=C(O)CC(c3c(Cl)cccc3Cl)CC2=O)c1 (configuration not stated)
≥ 10	40	≥ 10						COC(=O)Cc1ccc(Cl)c(SC2=C(O)CC(c3c(Cl)cccc3Cl)CC2=O)c1 (configuration not stated)
≥ 10	15	≥ 10	140	50 (≈ 23.2 µg/mL)	1.1		< 0.001	CC(C)Oc1ccc(Cl)c(C2CC(=O)C(Sc3cc(O)ccc3C#N)=C(O)C2)c1Cl (configuration not stated)
≥ 10	130	≥ 10						CCOC(=O)Cc1ccc(Cl)c(SC2=C(O)CC(c3c(Cl)cccc3Cl)CC2=O)c1 (configuration not stated)
≥ 10	25	≥ 10						COc1ccc(Cl)c(SC2=C(O)CC(c3c(Cl)ccc(OC(C)C)c3Cl)CC2=O)c1 (configuration not stated)
≥ 10	90	≥ 10						C[C@H](OC(=O)Cc1ccc(Cl)c(SC2=C(O)CC(c3c(Cl)cccc3Cl)CC2=O)c1)c1ccccc1 (some centres not stated)
≥ 10	85	≥ 10						O=C1CC(c2c(Cl)ccc(-c3ccncc3)c2Cl)CC(O)=C1Sc1ccccc1Cl (configuration not stated)
≥ 10	230	≥ 10						O=C1CC(c2c(Cl)ccc(N3CCN(C4CC4)CC3)c2Cl)CC(O)=C1Sc1ccccc1Cl (configuration not stated)
≥ 10	3500	≥ 10						O=C(O)Cc1ccc(Cl)c(SC2=C(O)CC(c3c(Cl)cccc3Cl)CC2=O)c1 (configuration not stated)
≥ 10	60	≥ 10						O=C1CC(c2c(Cl)ccc(NC3CCOCC3)c2Cl)CC(O)=C1Sc1ccccc1Cl (configuration not stated)
≥ 10	30	≥ 10						CCOC(=O)Cc1ccc(Cl)c(SC2=C(O)CC(c3c(Cl)ccc(-c4ccccc4)c3Cl)CC2=O)c1 (configuration not stated)
